Assays:
Experiment in all cases: Germination induction, change of turbidity (630 nm) of spore suspension
Assay type in all cases: cell-based
[1] = tested on: Aeribacillus pallidus TK6004 (FERM BP-08597); details: 300 ppm; for turbidity (630 nm): 37° C., 150 rpm
Experimental: (§1) It is possible to determine whether spores have germinated, after measuring an OD 630 value (turbidity at 630 nm) of the liquid culture, based on decrease in the value (Literature: Microbiology, (1950), 4, 3, 330-338). Briefly, bacterial cells after culturing are washed with distilled water and diluted with distilled water to OD 630=1.0, which is then mixed with an equal volume of a germination induction solution, and the turbidity at 630 nm is measured by a UV spectrophotometer at room temperature.
(§2) TS culture media (Difco, Trypticase Soy Broth) were inoculated respectively with 11 strains listed in Table 1 and cultured at 50° C. with respect to Geobacillus stearothermophilus NBRC13737 and Aeribacillus pallidus TK6004 (FERM BP-08597), and at 37° C. with respect to the other 9 strains, until respective colonies were established. Then with respect to each of 11 strains, a loop full of a single colony was scratched by a platinum loop and suspended in 500 μL of sterilized water. In 1000 g of water was dissolved 8.0 g of a nutrient agar culture medium (Difco, Nutrient Broth), followed by high pressure steam sterilization (121° C., 15 min) to prepare a plate medium. The nutrient agar culture medium was smeared with each 100 μL of the suspension and cultured at 37° C. for 3 days.
(§3) Then, bacterial cells were suspended using a platinum loop in 500 μL of sterilized water, and the bacterial suspension was subjected to a heat shock at 65° C. for 35 min. Each 100 μL of the heat-shocked bacterial suspension and a not-heat-shocked bacterial suspension were smeared on the TS culture media respectively and cultured at 50° C. or 37° C. for 1 day. As the results of the cultures, colony formation was confirmed also with respect to the heat-shocked bacterial suspensions, to confirm that spores were formed for all of 11 strains. Further, since the bacteria were not stained by Gram staining, it was reconfirmed that spores were formed.
(§4) After confirming the spore formation, the bacterial cells were collected by a bacteria spreader, suspended in 10 mL of sterilized distilled water, and then centrifuged (8340×g, 4° C., 15 min). The supernatant was removed and thereafter the bacterial cells were washed twice with 10 mL of sterilized water. After washing, the bacterial cells were suspended in 5 mL of sterilized water, and the suspension was filtrated by sterilized Kimwipes. The filtrate was centrifuged (8340×g, 4° C., 15 min) to remove the supernatant, and the rest was adjusted to the turbidity (at 630 nm) of 1.0 with sterilized water.
(§5) After dissolving with stirring using a stirring rod with a propeller, filtration sterilization (0.45 μm filter) was conducted to prepare each 600 ppm-solution.
(§6) Five hundred (500) μL of each solution and 500 μL of each bacterial spore suspension were mixed. […] Defining the time point of mixing as the reaction initiation (0 min), and continuing shaking (150 rpm) at 37° C., the turbidity (630 nm) was measured at 10, 20, 30, 40, 50, 60, 90, 120, and 180 min after the reaction initiation.
(§7) Since the turbidity at 630 nm decreases by germination of spores, it has been known that the turbidity at 630 nm can be used to determine the germination rate.

[2] = tested on: Bacillus amyloliquefaciens (NBRC 3032); details: 300 ppm; for turbidity (630 nm): 37° C., 150 rpm
Experimental: as §1, §2, §3, §4, §5, §6, §7

[3] = tested on: Bacillus coagulans (NBRC 3887); details: 300 ppm; for turbidity (630 nm): 37° C., 150 rpm
Experimental: as §1, §2, §3, §4, §5, §6, §7

[4] = tested on: Bacillus licheniformis (NBRC 12195); details: 300 ppm; for turbidity (630 nm): 37° C., 150 rpm
Experimental: as §1, §2, §3, §4, §5, §6, §7

[5] = tested on: Bacillus subtilis C-3102 (FERM BP-1096); details: 300 ppm; for turbidity (630 nm): 37° C., 150 rpm
Experimental: as §1, §2, §3, §4, §5, §6, §7

[6] = tested on: Bacillus subtilis sp spizizenii (NBRC 101239); details: 300 ppm, 37° C., 150 rpm
Experimental: as §1, §2, §3, §4, §5, §6, §7

[7] = tested on: Geobacillus stearothermophilus (NBRC 13737); details: 300 ppm; for turbidity (630 nm): 37° C., 150 rpm
Experimental: as §1, §2, §3, §4, §5, §6, §7

[8] = 0 min after reaction initiation
[9] = 10 min after reaction initiation
[10] = 20 min after reaction initiation
[11] = 30 min after reaction initiation
[12] = 40 min after reaction initiation
[13] = 50 min after reaction initiation
[14] = 60 min after reaction initiation
[15] = 90 min after reaction initiation
[16] = 120 min after reaction initiation
[17] = 180 min after reaction initiation

Question: Which “turbidity (630 nm)” value [1, 8] does the source give for `COc1cc(C(=O)O)ccc1O` [Vanillic acid, vanillic acid] here?
Answer: The value was 0.482.

Question: And the “turbidity (630 nm)” value [1, 9]?
Answer: Its value is 0.444.

Question: And the “turbidity (630 nm)” value [1, 10]?
Answer: The value was 0.348.

Question: What about the “turbidity (630 nm)” value [1, 11] of the same compound?
Answer: Its value is 0.243.

Question: What about the “turbidity (630 nm)” value [1, 12] of the same compound?
Answer: Its value is 0.158.

Question: And the “turbidity (630 nm)” value [1, 13]?
Answer: Its value is 0.103.

Question: What about the “turbidity (630 nm)” value [1, 14] of the same compound?
Answer: Its value is 0.067.

Question: What about the “turbidity (630 nm)” value [1, 15] of the same compound?
Answer: Its value is 0.026.

Question: What about the “turbidity (630 nm)” value [1, 16] of the same compound?
Answer: Its value is 0.010.

Question: And the “turbidity (630 nm)” value [1, 17]?
Answer: Its value is 0.000.

Question: What about the “germination confirmed by turbidity decrease” value ([1]; up to 180 min) of the same compound?
Answer: The value was “the turbidity decreased”.

Question: And the “turbidity (630 nm)” value [2, 8]?
Answer: Its value is 0.519.

Question: What about the “turbidity (630 nm)” value [2, 9] of the same compound?
Answer: The value was 0.496.

Question: What about the “turbidity (630 nm)” value [2, 10] of the same compound?
Answer: Its value is 0.485.

Question: What about the “turbidity (630 nm)” value [2, 11] of the same compound?
Answer: Its value is 0.435.

Question: What about the “turbidity (630 nm)” value [2, 12] of the same compound?
Answer: The value was 0.385.

Question: What about the “turbidity (630 nm)” value [2, 13] of the same compound?
Answer: The value was 0.359.

Question: What about the “turbidity (630 nm)” value [2, 14] of the same compound?
Answer: Its value is 0.316.

Question: And the “turbidity (630 nm)” value [2, 15]?
Answer: The value was 0.278.

Question: And the “turbidity (630 nm)” value [2, 16]?
Answer: Its value is 0.237.

Question: And the “turbidity (630 nm)” value [2, 17]?
Answer: Its value is 0.210.

Question: And the “germination confirmed by turbidity decrease” value ([2]; up to 180 min)?
Answer: The value was “the turbidity decreased”.

Question: What about the “turbidity (630 nm)” value [3, 8] of the same compound?
Answer: Its value is 0.559.

Question: What about the “turbidity (630 nm)” value [3, 9] of the same compound?
Answer: Its value is 0.550.

Question: What about the “turbidity (630 nm)” value [3, 10] of the same compound?
Answer: The value was 0.473.

Question: And the “turbidity (630 nm)” value [3, 11]?
Answer: The value was 0.411.

Question: What about the “turbidity (630 nm)” value [3, 12] of the same compound?
Answer: Its value is 0.364.

Question: What about the “turbidity (630 nm)” value [3, 13] of the same compound?
Answer: The value was 0.321.

Question: What about the “turbidity (630 nm)” value [3, 14] of the same compound?
Answer: The value was 0.295.

Question: And the “turbidity (630 nm)” value [3, 15]?
Answer: Its value is 0.230.

Question: What about the “turbidity (630 nm)” value [3, 16] of the same compound?
Answer: The value was 0.182.

Question: What about the “turbidity (630 nm)” value [3, 17] of the same compound?
Answer: Its value is 0.130.

Question: And the “germination confirmed by turbidity decrease” value ([3]; up to 180 min)?
Answer: Its value is “the turbidity decreased”.

Question: What about the “turbidity (630 nm)” value [4, 8] of the same compound?
Answer: The value was 0.536.

Question: What about the “turbidity (630 nm)” value [4, 9] of the same compound?
Answer: The value was 0.513.

Question: And the “turbidity (630 nm)” value [4, 10]?
Answer: The value was 0.483.

Question: And the “turbidity (630 nm)” value [4, 11]?
Answer: The value was 0.438.

Question: What about the “turbidity (630 nm)” value [4, 12] of the same compound?
Answer: Its value is 0.393.

Question: What about the “turbidity (630 nm)” value [4, 13] of the same compound?
Answer: Its value is 0.324.

Question: And the “turbidity (630 nm)” value [4, 14]?
Answer: The value was 0.278.

Question: And the “turbidity (630 nm)” value [4, 15]?
Answer: The value was 0.196.

Question: And the “turbidity (630 nm)” value [4, 16]?
Answer: Its value is 0.151.

Question: And the “turbidity (630 nm)” value [4, 17]?
Answer: Its value is 0.092.

Question: And the “germination confirmed by turbidity decrease” value ([4]; up to 180 min)?
Answer: Its value is “the turbidity decreased”.

Question: What about the “turbidity (630 nm)” value [5, 8] of the same compound?
Answer: The value was 0.604.

Question: And the “turbidity (630 nm)” value [5, 9]?
Answer: Its value is 0.575.

Question: What about the “turbidity (630 nm)” value [5, 10] of the same compound?
Answer: Its value is 0.551.

Question: What about the “turbidity (630 nm)” value [5, 11] of the same compound?
Answer: Its value is 0.543.

Question: What about the “turbidity (630 nm)” value [5, 12] of the same compound?
Answer: Its value is 0.505.

Question: What about the “turbidity (630 nm)” value [5, 13] of the same compound?
Answer: The value was 0.483.

Question: And the “turbidity (630 nm)” value [5, 14]?
Answer: The value was 0.461.

Question: What about the “turbidity (630 nm)” value [5, 15] of the same compound?
Answer: The value was 0.432.

Question: What about the “turbidity (630 nm)” value [5, 16] of the same compound?
Answer: Its value is 0.390.

Question: And the “turbidity (630 nm)” value [5, 17]?
Answer: Its value is 0.266.

Question: And the “germination confirmed by turbidity decrease” value ([5]; up to 180 min)?
Answer: Its value is “the turbidity decreased”.

Question: What about the “turbidity (630 nm)” value [6, 8] of the same compound?
Answer: The value was 0.529.

Question: And the “turbidity (630 nm)” value [6, 9]?
Answer: Its value is 0.520.

Question: And the “turbidity (630 nm)” value [6, 10]?
Answer: The value was 0.516.

Question: What about the “turbidity (630 nm)” value [6, 11] of the same compound?
Answer: The value was 0.512.

Question: What about the “turbidity (630 nm)” value [6, 12] of the same compound?
Answer: The value was 0.510.

Question: What about the “turbidity (630 nm)” value [6, 13] of the same compound?
Answer: The value was 0.510.

Question: What about the “turbidity (630 nm)” value [6, 14] of the same compound?
Answer: Its value is 0.502.

Question: And the “turbidity (630 nm)” value [6, 15]?
Answer: The value was 0.488.

Question: What about the “turbidity (630 nm)” value [6, 16] of the same compound?
Answer: Its value is 0.479.

Question: What about the “turbidity (630 nm)” value [6, 17] of the same compound?
Answer: Its value is 0.474.

Question: And the “turbidity (630 nm)” value [7, 8]?
Answer: The value was 0.584.

Question: And the “turbidity (630 nm)” value [7, 9]?
Answer: The value was 0.590.

Question: And the “turbidity (630 nm)” value [7, 10]?
Answer: The value was 0.531.

Question: And the “turbidity (630 nm)” value [7, 11]?
Answer: Its value is 0.510.

Question: What about the “turbidity (630 nm)” value [7, 12] of the same compound?
Answer: Its value is 0.467.

Question: And the “turbidity (630 nm)” value [7, 13]?
Answer: The value was 0.445.

Question: What about the “turbidity (630 nm)” value [7, 14] of the same compound?
Answer: Its value is 0.402.

Question: What about the “turbidity (630 nm)” value [7, 15] of the same compound?
Answer: Its value is 0.291.

Question: What about the “turbidity (630 nm)” value [7, 16] of the same compound?
Answer: Its value is 0.209.

Question: What about the “turbidity (630 nm)” value [7, 17] of the same compound?
Answer: The value was 0.099.

Question: And the “germination confirmed by turbidity decrease” value ([7]; up to 180 min)?
Answer: The value was “the turbidity decreased”.
